Square brackets hold non-standard residues; d marks the D form. Peptide text beside a SMILES is read from it. dPip = O=C(O)[C@H]1CCCCN1; Nphe = O=C(O)CNCc1ccccc1; Nleu = CC(C)CNCC(=O)O; NEtG = CCNCC(=O)O
Tests used:
[1] = target: T1, human thrombin (Homo sapiens, UniProt P00734); assay: Inhibition of amidase activity of thrombin (Kass), chromogenic substrate; format: biochemical; details: apparent association constant, mean over a range of concentrations
T1 construct: purified human thrombin, Enzyme Research Laboratories; purchased Enzyme Research Laboratories, South Bend, Indiana
Experimental: The assay is carried out by mixing 50 μL buffer (0.03 M Tris, 0.15 M NaCl, pH 7.4) with 25 μL of bovine thrombin or human thrombin solution (0.21 mg/mL of thrombostat bovine thrombin, Parke-Davis, or purified human thrombin, Enzyme Research Laboratories, South Bend, Indiana, at about 8 NIH units/mL, in the same buffer) and 25 μL of test compound in a solvent (in 50% aqueous methanol, v:v). The 150 μL of an aqueous solution of the chromogenic substrate (at 0.25 mg/mL) are added and the rates of hydrolysis of the substrate are measured by monitoring the reactions at 405 nm for the release of p-nitroaniline. Standard curves are constructed by plotting free thrombin concentration against hydrolysis rate. The hydrolysis rates observed with test compounds are then converted to "free thrombin" values in the respective assays by use of the standard curves. The bound thrombin (bound to test compound) is calculated by subtracting the amount of free thrombin observed in each assay from the known initial amount of thrombin used in the assay. The amount of free inhibitor in each assay is calculated by subtracting the number of moles of bound thrombin from the number of moles of added inhibitor (test compound).
The Kass value is the hypothetical equilibrium constant for the reaction between thrombin and the test compound (I). [formula]
Kass is calculated for a range of concentrations of test compounds and the mean value is reported in units of liter per mole.

[2] = target: T2, factor Xa (Homo sapiens, UniProt P00742); assay: Serine protease selectivity, Kass, factor Xa chromogenic assay; format: biochemical; details: apparent association constant
T2 construct: Human factors X, Xa, IXa, XIa, and XIIa are purchased from Enzyme Research Laboratories; purchased Enzyme Research Laboratories, South Bend, Ind
T2 sequence (P00742 235-488 limits assumed): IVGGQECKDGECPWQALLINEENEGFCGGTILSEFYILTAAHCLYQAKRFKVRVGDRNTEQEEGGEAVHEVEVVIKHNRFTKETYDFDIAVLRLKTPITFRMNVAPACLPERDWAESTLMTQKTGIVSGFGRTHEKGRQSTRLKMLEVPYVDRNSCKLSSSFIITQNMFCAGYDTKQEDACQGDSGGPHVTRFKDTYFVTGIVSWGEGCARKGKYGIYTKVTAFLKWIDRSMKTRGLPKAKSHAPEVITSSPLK
T2 sequence (P00742 41-179 partner limits assumed): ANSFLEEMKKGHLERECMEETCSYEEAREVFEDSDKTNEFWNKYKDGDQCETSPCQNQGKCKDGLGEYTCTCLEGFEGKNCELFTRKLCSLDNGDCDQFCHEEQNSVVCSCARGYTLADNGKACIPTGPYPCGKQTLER
Experimental: (§1) By substantially following the procedures described above for human thrombin, and using other human blood coagulation system serine proteases and proteases of the fibrinolytic system with the appropriate chromogenic substrates, identified below, selectivity of the compounds of the present invention with respect to the coagulation factor serine proteases and with respect to the fibrinolytic system serine proteases are evaluated as well as their substantial lack of interference with serine proteases of the fibrinolytic system. Thrombin inhibitors preferably should spare fibrinolysis induced by urokinase, tissue plasminogen activator (t-PA) and streptokinase. This would be important to the therapeutic use of such agents as an adjunct to streptokinase, t-PA or urokinase thrombolytic therapy and to the use of such agents as an endogenous fibrinolysis-sparing (with respect to t-PA and urokinase) antithrombotic agent. In addition to the lack of interference with the amidase activity of the fibrinolytic proteases, such fibrinolytic system sparing can be studied by the use of human plasma clots and their lysis by the respective fibrinolytic plasminogen activators.
(§2) Human factors X, Xa, IXa, XIa, and XIIa are purchased from Enzyme Research Laboratories, South Bend, Ind.; human urokinase from Leo Pharmaceuticals, Denmark; and recombinant activated Protein C (aPC) is prepared at Eli Lilly and Co. substantially according to U.S. Pat. No. 4,981,952 incorporated by reference herein in its entirety. Chromogenic substrates: N--Benzoyl--Ile--Glu--Gly--Arg--p--nitroanilide (for factor Xa); N--Cbz--D--Arg--Gly--Arg--p--nitroanilide (for factor IXa assay as the factor Xa substrate); Pyroglutamyl--Pro--Arg--p--nitroanilide (for Factor XIa and for aPC); H--D--Pro--Phe--Arg--p--nitroanilide (for factor XIIa); and Pyroglutamyl--Gly--Arg--p--nitroanilide (for urokinase); are purchased from KabiVitrum, Stockholm, Sweden, or from Midwest Biotech, Fishers, Indiana. Bovine trypsin is purchased from Worthington Biochemicals, Freehold, N.J., and human plasma kallikrein from Kabi Vitrum, Stockholm, Sweden. Chromogenic substrate H--D--Pro--Phe--Arg--p--nitroanilide for plasma kallikrein is purchased from Kabi Vitrum, Stockholm, Sweden. N--Benzoyl--Phe--Val--Arg--p--nitroanilide, the substrate for human thrombin and for trypsin, is synthesized according to procedures described above for the compounds of the present invention, using known methods of peptide coupling from commercially available reactants or purchased from Midwest Biotech, Fishers, Ind.

[3] = target: T3, Bovine trypsin (Bos taurus, UniProt P00760); assay: Serine protease selectivity, Kass, trypsin chromogenic assay; format: biochemical; details: apparent association constant
T3 construct: purchased Worthington Biochemicals, Freehold, N.J
T3 sequence (P00760 24-246): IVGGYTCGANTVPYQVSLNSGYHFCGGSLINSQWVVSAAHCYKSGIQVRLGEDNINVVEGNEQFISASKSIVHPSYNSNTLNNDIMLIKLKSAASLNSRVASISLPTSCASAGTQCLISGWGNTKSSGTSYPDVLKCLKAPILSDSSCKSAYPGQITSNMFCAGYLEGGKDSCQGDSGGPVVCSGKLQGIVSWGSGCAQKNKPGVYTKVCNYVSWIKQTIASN
Experimental: as §1, §2

[4] = target: T4, Human plasmin (Homo sapiens, UniProt P00747); assay: Fibrinolytic protease selectivity, Kass, plasmin chromogenic assay; format: biochemical; details: apparent association constant
T4 construct: Human plasmin is purchased from Boehringer Mannheim; purchased Boehringer Mannheim, Indianapolis, Indiana
T4 sequence (P00747 581-810 limits assumed): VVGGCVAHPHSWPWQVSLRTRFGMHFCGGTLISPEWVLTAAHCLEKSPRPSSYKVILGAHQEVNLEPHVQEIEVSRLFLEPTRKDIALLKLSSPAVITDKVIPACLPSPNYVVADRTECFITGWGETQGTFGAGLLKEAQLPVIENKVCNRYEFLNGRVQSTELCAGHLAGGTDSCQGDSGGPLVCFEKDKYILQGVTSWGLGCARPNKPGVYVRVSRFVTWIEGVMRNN
T4 sequence (P00747 97-580 partner limits assumed): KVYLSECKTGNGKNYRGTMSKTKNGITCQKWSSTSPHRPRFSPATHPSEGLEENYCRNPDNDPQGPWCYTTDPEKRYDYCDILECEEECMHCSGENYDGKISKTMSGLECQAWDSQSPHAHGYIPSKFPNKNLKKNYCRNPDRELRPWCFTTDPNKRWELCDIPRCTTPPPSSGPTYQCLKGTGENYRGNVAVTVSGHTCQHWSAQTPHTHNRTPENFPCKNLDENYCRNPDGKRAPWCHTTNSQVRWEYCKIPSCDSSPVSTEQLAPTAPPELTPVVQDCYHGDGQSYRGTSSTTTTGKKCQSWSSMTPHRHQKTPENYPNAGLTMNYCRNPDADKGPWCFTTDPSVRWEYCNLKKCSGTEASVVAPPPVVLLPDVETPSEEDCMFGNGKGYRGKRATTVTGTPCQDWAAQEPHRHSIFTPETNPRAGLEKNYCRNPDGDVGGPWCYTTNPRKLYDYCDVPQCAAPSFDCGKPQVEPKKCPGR
Experimental: as §1
(§3) Human plasmin is purchased from Boehringer Mannheim, Indianapolis, Indiana; nt-PA is purchased as single chain activity reference from American Diagnostica, Greenwich, Conn.; modified-t-PA6 (mt-PA6) is prepared at Eli Lilly and Company by procedure known in the art (See, Burck, et al., J. Biol. Chem., 265, […] (1990). Plasmin chromogenic substrate H--D--Val--Leu--Lys--p--nitroanilide and tissue plasminogen activator (t-PA) substrate H--D--Ile--Pro--Arg--p--nitroanilide are purchased from Kabi Vitrum, Stockholm, Sweden.

[5] = target: T5, tissue plasminogen activator (t-PA) (Homo sapiens, UniProt P00750); assay: Fibrinolytic protease selectivity, Kass, t-PA chromogenic assay; format: biochemical; details: apparent association constant
T5 construct: purchased American Diagnostica, Greenwich, Conn
T5 sequence (P00750 36-562): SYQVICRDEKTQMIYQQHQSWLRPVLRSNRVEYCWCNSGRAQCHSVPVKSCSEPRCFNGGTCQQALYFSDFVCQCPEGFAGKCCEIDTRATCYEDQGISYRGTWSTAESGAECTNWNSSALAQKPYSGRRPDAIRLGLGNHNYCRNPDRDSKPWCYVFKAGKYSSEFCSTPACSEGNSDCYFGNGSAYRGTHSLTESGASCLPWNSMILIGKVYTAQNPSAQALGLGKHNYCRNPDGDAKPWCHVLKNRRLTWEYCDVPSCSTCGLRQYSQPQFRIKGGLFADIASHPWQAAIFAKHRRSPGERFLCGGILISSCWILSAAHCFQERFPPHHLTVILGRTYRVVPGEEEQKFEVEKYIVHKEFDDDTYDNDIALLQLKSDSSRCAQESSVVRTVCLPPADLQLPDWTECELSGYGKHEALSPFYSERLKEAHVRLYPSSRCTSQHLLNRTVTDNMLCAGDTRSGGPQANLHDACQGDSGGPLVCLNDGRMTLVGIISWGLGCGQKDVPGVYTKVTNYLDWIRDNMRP
Experimental: as §1, §3

[6] = test system: human plasma; assay: Human plasma anticoagulation, thrombin time (TT); details: concentration required to double the thrombin time, linear extrapolation
Experimental: (§4) Dog plasma and rat plasma is obtained from conscious mixed-breed hounds (either sex, Hazelton-LRE, Kalamazoo, Mich., U.S.A.) or from anesthetized male Sprague-Dawley rats (Harlan Sprague-Dawley, Inc., Indianapolis, Ind., U.S.A.) by venipuncture into 3.8 percent citrate. Fibrinogen is prepared from in-date ACD human blood as the fraction I-2 according to previous procedures and specifications. Smith, Biochem. J., 185, 1-11 (1980); and Smith, et al., Biochemistry, 11, 2958-2967 (1972). Human fibrinogen is also purchased as 98 percent pure/plasmin free from American Diagnostica, Greenwich, Conn. Coagulation reagents ACTIN, Thromboplastin, and Human plasma are from Baxter Healthcare Corp., Dade Division, Miami, Fla. Bovine thrombin from Parke-Davis ([…], Mich.) is used for coagulation assays in plasma.
(§5) Coagulation assay procedures are as previously described. Smith, et al., Thrombosis Research, 50, 163-174 (1988). A CoAScreener coagulation instrument (American LABor, Inc.) is used for all coagulation assay measurements. The prothrombin time (PT) is measured by adding 0.05 mL saline and 0.05 mL Thromboplastin-C reagent to 0.05 mL test plasma. The activated partial thromboplastin time (APTT) is measured by incubation of 0.05 mL test plasma with 0.05 mL Actin reagent for 120 seconds followed by 0.05 mL CaCl2 (0.02 M). The thrombin time (TT) is measured by adding 0.05 mL saline and 0.05 mL thrombin (10 NIH units/mL) to 0.05 mL test plasma. The compounds of formula I are added to human or animal plasma over a wide range of concentrations to determine prolongation effects on the APTT, PT, and TT assays. Linear extrapolations are performed to estimate the concentrations required to double the clotting time for each assay.

[7] = test system: human plasma; assay: Human plasma anticoagulation, activated partial thromboplastin time (APTT); details: concentration required to double the APTT, linear extrapolation
Experimental: as §4, §5

[8] = test system: human plasma; assay: Human plasma anticoagulation, prothrombin time (PT); details: concentration required to double the PT, linear extrapolation
Experimental: as §4, §5

Row | SMILES | Enzyme Kass Human Thrombin [1] [L/mol × 10^6] | Enzyme Kass Xa [2] [L/mol × 10^6] | Enzyme Kass Trypsin [3] [L/mol × 10^6] | Enzyme Kass Plasmin [4] [L/mol × 10^6] | Enzyme Kass t-PA [5] [L/mol × 10^6] | Human Plasma Anticoagulation 2 × Clotting time TT [6] [ng/mL] | Human Plasma Anticoagulation 2 × Clotting time APTT [7] | Human Plasma Anticoagulation 2 × Clotting time PT [8]
1 | CCN(CC(=O)N[C@H](C=O)CCCNC(=N)N)C(=O)[C@H]1CCCCN1.Cl.Cl [Example 2, D-homoprolyl-N-ethylglycyl-L-argininal dihydrochloride] (H-[dPip]-[NEtG]-Arg-aldehyde) | 33 | 0.039 | 1.3 | 0.013 | 0.005 | 160 | 2,600 ng/mL | 5,000 ng/mL
2 | CCCN(CC(=O)N[C@H](C=O)CCCNC(=N)N)C(=O)[C@H]1CCCCN1.Cl.Cl [Example 3, D-homoprolyl-N-n-propylglycyl-L-argininal dihydrochloride] | 34 | 0.084 | 2.4 | 0.045 | 0.004 | 77 | 2,100 ng/mL | 2,000 ng/mL
3 | CC(C)N(CC(=O)NC(C=O)CCCNC(=N)N)C(=O)C1CCCCN1.Cl.Cl [Example 4, D--hPro--N(i--Pr)Gly--ArgH.2HCl] | 9.7 | 0.074 | 0.5 | 0.031 | 0.001 | 230 | 12,000 ng/mL | 14,000 ng/mL
4 | CC(C)CN(CC(=O)N[C@H](C=O)CCCNC(=N)N)C(=O)[C@H]1CCCCN1.Cl.Cl [Example 5, D--hPro--N(i--Bu)Gly--ArgH.2HCl] (H-[dPip]-[Nleu]-Arg-aldehyde) | 24 | 0.060 | 1.6 | 0.050 | 0.002 | 100 | 3,800 ng/mL | 4,900 ng/mL
5 | Cl.Cl.N=C(N)NCCC[C@@H](C=O)NC(=O)CN(Cc1ccccc1)C(=O)[C@H]1CCCCN1 [Example 7, D--hPro--N(Bn)Gly--ArgH.2HCl] (H-[dPip]-[Nphe]-Arg-aldehyde) | 11 | 0.25 | 10 | 0.13 | 0.010 | 120 | 3,700 ng/mL | 4,400 ng/mL
6 | Cl.Cl.N=C(N)NCCC[C@@H](C=O)NC(=O)CN(CCCc1ccccc1)C(=O)[C@H]1CCCCN1 [Example 9, D--hPro--N(PhCH2 CH2 CH2)Gly--ArgH.2HCl] | 24 | 0.31 | 6.0 | 0.12 | 0.006 | 55 | 2,200 ng/mL | 3,000 ng/mL
7 | Cl.Cl.NC(N)=NCCC[C@@H](C=O)NC(=O)CN(CCC1CCCCC1)C(=O)[C@H]1CCCCN1 [Example 10, D--hPro--N(cyclohexyl--CH2 CH2)Gly--ArgH.2HCl] | 5.4 | 0.22 | 5.8 | 0.33 | 0.007 | 230 | 4,100 ng/mL | 6,900 ng/mL
